Results taken from patent US4434151A, “Bifunctional chelating agents” (Medi-Physics, Inc., priority 1982, dated 1984).

Assays:
[1] = Gamma camera imaging / regional areas of interest in rabbits after intravenous administration; format: in vivo, rabbits (New Zealand White); conditions: i.v.; for Gamma camera count densities (RAI): rabbits
Description: (§1) The ^99m Tc complex used for the animal studies was prepared in Example 6 following both methods of reduction, stannous chloride or dithionite. The ^99m Tc-MGHA complexes labeled by either reduction method were tested in animals. The mass concentrations of the ^99m Tc complex administered to test animals were approximately 0.04 mg/kg body weight for rabbits and 13.0 mg/kg body weight for mice. The radioactivity administered to rabbits and mice were about 0.5 mCi and 1.5 mCi respectively. The pH of the injectant solution was approximately 5 to 6.
Nonanesthetized and nonfasted male rabbits (New Zealand White) weighing 3.0-3.5 kg were restrained in dorsal recumbancy approximately 2-3 cm from the face of the gamma camera. After intravenous administration of 0.1 mL of the ^99m Tc-labeled complex solution in the marginal ear vein, anterior images were stored by a dedicated computer during injection, and 5, 10, 15, 20 and 30 minutes following administration.
The ^99m Tc-complex prepared via a dithionate reduction of Example 6 was administered to male albino rabbits weighing 3.0-3.5 kg. The drug was injected into the marginal ear vein. The mass of drug administered was equivalent to ~0.04 mg/kg while the volume injected was 0.1 mL. The administered dose was ~0.5 mCi. Each test animal was restrained in dorsal recumbancy approximately 2-3 cm from the face of the gamma camera. Immediately after injection, 100-500 k counts were obtained from the gamma camera and stored on floppy disc. The computer controlled the maximum number of counts that could be stored per image. Sequential images were obtained and stored on disc at 5, 10, 15, 20 and 30 minutes following administration.
After all images were stored, quantitative image analysis was utilized to obtain count densities in regional areas of interest (RAI). The RAIs were delineated as distinct anatomical structures. Three distinct areas were observed.
A ^99m Tc-complex prepared via a stannous chloride reduction of Example 6 was administtered to male albino rabbits weighing 3.0-3.5 kg. […]

[2] = Organ uptake (biodistribution) of 99mTc activity in mice after intravenous administration; format: in vivo; conditions: i.v.; for Organ uptake of 99mTc, Carcass / Organ uptake of 99mTc, Intestines / Organ uptake of 99mTc, Kidney / Organ uptake of 99mTc, Liver / Organ uptake of 99mTc, Lung / Organ uptake of 99mTc, Stomach / Organ uptake of 99mTc, Tail: average of four animals ± SD
Description: as §1
Nonfasted male mice (1CR strain) weighing 20-24 grams were administered in the tail vein with 0.2 mL of a ^99m Tc-complex solution. At 15, 30, 60 minutes post administration groups of four animals were sacrificed by cervical dislocation and selected organs removed for ^99m Tc assay in a gross ionization counting chamber. The percentage of the injected dose corrected for ^99m Tc decay was calculated for the various organs at each sacrifice time.
A ^99m Tc-MGHA complex prepared via a dithionite reduction of ^99m TcO4^- of Example 6 was administered to female albino mice weighing 20-24 gm. The test drug was administered through the lateral tail vein at a mass dose of approximately 13.0 mg/kg in a volume of 0.2 mL. The corresponding radioactive dose administered to each animal was 1.5 mCi. After injection, groups of four animals were sacrificed (cervical dislocation) at 15, 30 and 60 minutes. The liver, kidney, lung, heart, stomach and intestines (small and large) were removed and assayed for ^99m Tc activity in a gross ionization counting chamber. Also, the tails and remaining carcasses were individually assayed for ^99m Tc activity.
Knowing the amount of ^99m Tc activity administered (assaying for ^99m Tc in the syringe before and after injection) and the amount assayed in the various organs, the percentage of injected dose (% ID) was calculated as: [formula] All activities (Ci) were initially corrected for ^99m Tc decay back to a fixed starting time using the standard first order differential equation for decay correction (see below): […]
where N0 and N1 are initial and final activities (Ci) respectively. The half-life (T1/2) for ^99m Tc decay is 6.02 hr. The value of t is the elapsed time (hrs.) for the correction.
The results of ^99m Tc uptake in various organs and tissues in mice administered ^99m Tc-MGHA labeled via a dithionite reduction is given in Table 1.
A ^99m Tc-MGHA complex prepared via a stannous chloride reduction of 99mTcO.sbsb.4^- of Example 6 was administered to female albino mice weighing 20-24 gm. The same methods and procedures given in Example 19 were used to calculate the % ID for each organ.

[3] = mice, dithionite reduction, 15 min.
[4] = mice, dithionite reduction, 30 min.
[5] = mice, dithionite reduction, 60 min.

CNC(=O)C1CC[S][99Tc-]23(=[O])[S]CC[N]2CC(=O)[N]13 [^99m Tc-MGHA, [2-[[1-(2mercaptoethyl)-2-(methylamino)-2-oxoethyl]-N-(2-mercaptoethyl)glycinato-N,N',S,S']oxotechnetate-99m]
Distinct areas observed in quantitative image analysis (RAI) ([1]; male albino rabbits, dithionite reduction, ~0.5 mCi, up to 30 minutes): The left and right kidneys and the bladder were clearly defined
Gamma camera count densities (RAI) ([1]; SnCl2 reduction method): significant count densities in regions where the right and left kidneys were visualized
Gamma camera count densities (RAI) ([1]; dithionite reduction method): significant count densities in regions where the right and left kidneys were visualized
Excretion of activity from the body ([2]; mice): rapid excretion of activity from the body
Total remaining activity (% injected dose) ([2]; mice, 30 minutes): approximately one-half of the injected dose
Organ uptake of 99mTc, Carcass ([2]; mice, SnCl2 reduction, 15 min.): 17.4 ± 2.8 % Injected Dose
Organ uptake of 99mTc, Intestines ([2]; mice, SnCl2 reduction, 15 min.): 28.7 ± 6.1 % Injected Dose
Organ uptake of 99mTc, Kidney ([2]; mice, SnCl2 reduction, 15 min.): 3.3 ± .9 % Injected Dose
Organ uptake of 99mTc, Liver ([2]; mice, SnCl2 reduction, 15 min.): 13.3 ± 5.4 % Injected Dose
Organ uptake of 99mTc, Lung ([2]; mice, SnCl2 reduction, 15 min.): .9 ± .4 % Injected Dose
Organ uptake of 99mTc, Stomach ([2]; mice, SnCl2 reduction, 15 min.): .3 ± .4 % Injected Dose
Organ uptake of 99mTc, Tail ([2]; mice, SnCl2 reduction, 15 min.): 1.4 ± .7 % Injected Dose
Organ uptake of 99mTc, Carcass ([2]; mice, SnCl2 reduction, 30 min.): 5.7 ± 2.9 % Injected Dose
Organ uptake of 99mTc, Intestines ([2]; mice, SnCl2 reduction, 30 min.): 27.3 ± 7.0 % Injected Dose
Organ uptake of 99mTc, Kidney ([2]; mice, SnCl2 reduction, 30 min.): 1.6 ± .4 % Injected Dose
Organ uptake of 99mTc, Liver ([2]; mice, SnCl2 reduction, 30 min.): 6.1 ± .9 % Injected Dose
Organ uptake of 99mTc, Lung ([2]; mice, SnCl2 reduction, 30 min.): .2 ± .2 % Injected Dose
Organ uptake of 99mTc, Stomach ([2]; mice, SnCl2 reduction, 30 min.): .6 ± .9 % Injected Dose
Organ uptake of 99mTc, Tail ([2]; mice, SnCl2 reduction, 30 min.): .14 ± .2 % Injected Dose
Organ uptake of 99mTc, Carcass ([2]; mice, SnCl2 reduction, 60 min.): 12.4 ± 5.1 % Injected Dose
Organ uptake of 99mTc, Intestines ([2]; mice, SnCl2 reduction, 60 min.): 29.3 ± 10.4 % Injected Dose
Organ uptake of 99mTc, Kidney ([2]; mice, SnCl2 reduction, 60 min.): 2.3 ± .8 % Injected Dose
Organ uptake of 99mTc, Liver ([2]; mice, SnCl2 reduction, 60 min.): 7.7 ± 2.0 % Injected Dose
Organ uptake of 99mTc, Lung ([2]; mice, SnCl2 reduction, 60 min.): .6 ± .3 % Injected Dose
Organ uptake of 99mTc, Stomach ([2]; mice, SnCl2 reduction, 60 min.): .1 ± .2 % Injected Dose
Organ uptake of 99mTc, Tail ([2]; mice, SnCl2 reduction, 60 min.): .7 ± .3 % Injected Dose
Kidney uptake of activity over time ([2]; mice, at the various time intervals examined): declining at the various time intervals examined
Organ uptake of 99mTc, Carcass [2, 3]: 21.9 ± 2.9 % Injected Dose
Organ uptake of 99mTc, Intestines [2, 3]: 16.8 ± 3.0 % Injected Dose
Organ uptake of 99mTc, Kidney [2, 3]: 3.1 ± .6 % Injected Dose
Organ uptake of 99mTc, Liver [2, 3]: 11.3 ± 1.0 % Injected Dose
Organ uptake of 99mTc, Lung [2, 3]: .9 ± .2 % Injected Dose
Organ uptake of 99mTc, Stomach [2, 3]: .3 ± .01 % Injected Dose
Organ uptake of 99mTc, Tail [2, 3]: 1.7 ± 1.0 % Injected Dose
Organ uptake of 99mTc, Carcass [2, 4]: 13.4 ± 5.3 % Injected Dose
Organ uptake of 99mTc, Intestines [2, 4]: 20.5 ± 2.0 % Injected Dose
Organ uptake of 99mTc, Kidney [2, 4]: 3.4 ± .5 % Injected Dose
Organ uptake of 99mTc, Liver [2, 4]: 7.6 ± .9 % Injected Dose
Organ uptake of 99mTc, Lung [2, 4]: .3 ± .1 % Injected Dose
Organ uptake of 99mTc, Stomach [2, 4]: .1 ± .1 % Injected Dose
Organ uptake of 99mTc, Tail [2, 4]: .3 ± .1 % Injected Dose
Organ uptake of 99mTc, Carcass [2, 5]: 18.3 ± 2.5 % Injected Dose
Organ uptake of 99mTc, Intestines [2, 5]: 16.9 ± 1.4 % Injected Dose
Organ uptake of 99mTc, Kidney [2, 5]: 3.9 ± .6 % Injected Dose
Organ uptake of 99mTc, Liver [2, 5]: 10.2 ± 1.6 % Injected Dose
Organ uptake of 99mTc, Lung [2, 5]: .5 ± .3 % Injected Dose
Organ uptake of 99mTc, Stomach [2, 5]: .8 ± .9 % Injected Dose
Organ uptake of 99mTc, Tail [2, 5]: 1.1 ± .4 % Injected Dose
Kidney uptake ([2]; mice, sacrifice times greater than 15 minutes post injection): little kidney uptake
Clearance of 99mTc activity out of the body ([2]; mice, within the first 15 minutes): fast clearance out of the body within the first 15 minutes
Suggested route of 99mTc clearance ([2]; test animals, indirect evidence): possible kidney clearance
